We go through nine compounds from US20210186947A1, “TOMM6-INTERACTING EXTRACTS AND COMPOUNDS FOR USE IN THE TREATMENT AND PROPHYLAXIS OF NERVOUS SYSTEM DISEASES, ATHEROSCLEROSIS, HEPATITIS B INFECTION AND HUMAN PAPILLOMA VIRUS (HPV) INFECTION” (ETH ZURICH, priority 2018, published 2021).

Numbering of substitutions follows the chain as printed.

Data set [1] concerns the target T1, TOMM6 (Homo sapiens, UniProt Q96B49).
T1 sequence (Q96B49 1-74): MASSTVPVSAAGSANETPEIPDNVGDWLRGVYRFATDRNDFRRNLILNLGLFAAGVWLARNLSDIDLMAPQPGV
The data set is described as follows: Screening for TOMM6-inducing compounds in HEK cells, TOMM6 immunoblot. It is filed as cell-based. Details: endogenous in cells; host or cells: HEK cells. To be noted: final concentration 20 microM, 60 h. As for the experimental part:
For immunoblot detection of (hippocampal or HEK cell) proteins, e.g. Tomm6/TOMM6 and Atp6v1a/ATP6V1A, (hippocampal) tissue was pulverized under liquid nitrogen, and HEK cell pellets were directly subjected to protein extraction. Proteins were extracted for 30 min at 4° C. with solubilization buffer (1% sodium deoxycholate, 0.1% SDS, 0.1% NP40, 5 mM EDTA, 50 mM Tris, pH 8.0) supplemented with protease/phosphatase inhibitors (Cat. No. P8349, and/or PPC1010, Sigma-Aldrich, St. Louis, Mo., USA). Particulate material was removed by centrifugation at 50 000×g for 20 min at 4° C. Solubilized proteins were concentrated and delipidated by precipitation with ice-cold acetone/methanol (12:2, final concentration 83%) for 90 min at 4° C. The pellet was dissolved in SDS-sample buffer supplemented with 2% SDS, 0.1 M DTT (or 5% mercaptoethanol), and 6 M urea for 90 min at room temperature. Proteins were stored at a concentration of 0.5 mg-1 mg/ml at −70° C. for further use. Immunoblot detection of proteins was performed with affinity-purified antibodies or F(ab)2 fragments of the respective antibodies after separation of proteins by urea-containing SDS-PAGE (7.5%-10%) under reducing conditions and electrophoretic protein transfer to PVDF membranes in a tank transfer cell (Mini Trans-Blot cell, Bio-Rad GmbH, Munchen, Germany). Bound antibodies were visualized with F(ab)2 fragments of enzyme-coupled secondary antibodies (Dianova GmbH, Hamburg, Germany) pre-absorbed to mouse serum proteins, or by enzyme-coupled protein A (EMD Millipore, Merck KGaA, Darmstadt, Germany) as applicable, and followed by enhanced chemiluminescent detection (ECL Plus, and/or ECL Prime, Amersham, GE Healthcare Life Sciences, Glattbrugg, Switzerland).
TOMM6-inducing compounds were searched for and a screening system was established in HEK cells. HEK cells were cultured in the absence and presence of a test compound at a final concentration of 20 microM. Cells were harvested, proteins were extracted and TOMM6 protein levels were determined in immunoblot with TOMM6-specific antibodies. […] The following TOMM6-interacting (inducing) compounds were identified: Compound-3: N-[(3-chlorophenyl)methyl]-2-(3-piperidyl)oxazole-4-carboxamide; Compound-4: N-[(3,4-dichlorophenyl)methyl]-2-(3-piperidyl)oxazole-4-carboxamide; Compound-5: 2-[(1S)-1-amino-2-methyl-butyl]-N-[(3,4-dichlorophenyl)methyl]oxazole-4-carboxamide; Compound-6: 2-[(1S)-1-amino-2-methyl-propyl]-N-[(3,4-dichlorophenyl)methyl]oxazole-4-carboxamide; Compound-7: 6-(aminomethyl)-4-(4-chlorophenyl)-2-methyl-pyridine-3-carboxamide; Compound-8: 4-(2,4-dichlorophenyl)-6-[(1,3-dioxoisoindolin-2-yl)methyl]-2-methyl-pyridine-3-carboxamide; Compound-9: 4-(4-chlorophenyl)-6-[(1,3-dioxoisoindolin-2-yl)methyl]-2-methyl-pyridine-3-carboxamide; and Compound-10: 4-(4-chlorophenyl)-6-(hydroxymethyl)-2-methyl-pyridine-3-carboxamide).
Background: Immunoblotting shows a protein as a band on a membrane.

The nature of data set [2]: Measurement of serum level in rats by HPLC. The format is in vivo, Sprague Dawley rats. Here is the method: (§1) Serum concentrations of alizarin were determined with serum isolated from the blood of male and female German shepherd dogs (age: 8-9 months) taken at different time points (0.5 h, 1 h, 2 h, 4 h, 6 h, 8 h, 24 h) after oral intake of the indicated doses for 4 weeks. In addition, serum concentrations of alizarin (Compound-1) were determined in male and female Sprague Dawley rats (body weight: 200-250 g) treated for 1 month and/or three months by oral gavage of alizarin at a once daily dose of 100 mg/kg, 50 mg/kg, 25 mg/kg and 12.5 mg/kg. Serum proteins were removed by acetonitrile precipitation, and alizarin was extracted by chloroform before separation on an HPLC-C18 column (Poroshell 120 EC-C18, 3.0×50 mm, Agilent) with an HPLC system (Agilent 1100 Series) and detection at OD245 nm. For quantitative determination of Compound-7 and Compound-10F in rat and dog serum, serum proteins were also removed by acetonitrile precipitation before HPLC analysis as detailed above and detection at OD254 nm.

Data set [3] deals with hippocampal neuronal cell bodies (NeuN). The data set is described as follows: Hippocampal neuronal loss in Tg2576 mice subjected to CUMS, binding assay with [125I]-labeled anti-NeuN antibody. It is filed as in vivo. To be noted: 15 months-old Tg2576 mice, 3 months of CUMS, treated during CUMS; compounds 10 mg/kg/d.
A short description of data set [4]: Measurement of serum level in dogs by HPLC. The format is in vivo, German shepherd dogs. To be noted: for peak serum concentration: t=1 h. As for the experimental part:
as §1

The test system of data set [5] is hyperphosphorylated PHF-Tau. The data set is described as follows: Hippocampal hyperphosphorylated PHF-Tau in Tg2576 mice subjected to CUMS, binding assay with [125I]-labeled AT8 antibody. It is filed as in vivo. To be noted: 15 months-old Tg2576 mice, 3 months of CUMS, treated during CUMS; compounds 10 mg/kg/d.
Data set [6] deals with T2, Tomm6 (Mus musculus, UniProt Q9CQN3).
T2 construct: hippocampi were isolated from 5-10 aged Tg2576 mice, pulverized under liquid nitrogen and solubilized; from tissue; host or cells: hippocampus of Tg2576 mice
T2 sequence (Q9CQN3 1-74): T1 sequence (Q96B49 1-74) with T5G, P7T, N15S, T17A, P18S, I20V, Y32F
The data set is described as follows: Immunoblot detection of hippocampal Tomm6 protein in treated Tg2576 mice. It is filed as in vivo. To be noted: Tg2576 AD mice subjected to the CUMS protocol, treated during CUMS (10 mg/kg/d).

Data set [7] can be described thus: Sub-chronic oral toxicity in rats. It is filed as in vivo, Sprague Dawley rats. As for the experimental part:
Sub-chronic toxicity studies in dogs (German Shepherd dogs) and rats (Sprague Dawley rats) were performed by the Center of Applied Analytical and Veterinary Studies, Cairo, Egypt.
The oral toxicity of alizarin (Compound-1) in rats was determined in a sub-chronic toxicity study. Rats were treated for 3 months with a once daily oral dose of alizarin of 25 mg/kg/day, 50 mg/kg/day and 100 mg/kg/day. […] The good tolerability of alizarin in rats and dogs is supported by previous observations in humans, which document that long-term treatment for several years with alizarin and alizarin-containing plant extracts is not toxic and was previously used to prevent recurrence of calcium-containing urinary stones (Lorenz et al., Methods Find. Exp. Clin. Pharmacol. 7, 637-643, 1985). Taken together, alizarin has good oral bioavailability and a wide therapeutic window.
Pharmacokinetic data of Compound-7 were determined as another representative TOMM6/Tomm6 inducer with a different chemical structure than alizarin (Compound-1). […] The oral bioavailability of Compound-7 in dogs was much higher than in rats because oral doses of Compound-7 required to achieve equivalent peak serum concentrations were approximately 10-fold higher in rats compared to dogs (FIG. 20B). Again, this observation is in agreement with the equivalent surface area dosage rule, according to which rats and mice usually require a 10-12-fold higher dose than dogs and humans. […] This second peak could reflect enterohepatic recirculation of Compound-7.

Data set [8] is described as follows: Tolerability / toxicity in dogs during four weeks of oral treatment. The format is in vivo. To be noted: up to an oral dose of 12.5 mg/kg/day.
Data set [9] in a line: Toxic adverse effects during 3 months of treatment of Tg2576 AD mice. The format is in vivo. To be noted: daily dose of 10 mg/kg.
In data set [10] the target is T1, TOMM6. In words: Tomm6 induction, test not described.
[11] abbreviates: rats, repeated once daily oral intake of 20 mg/kg/d.

`Cc1nc(CN2C(=O)c3ccccc3C2=O)cc(-c2ccc(Cl)cc2Cl)c1C(N)=O` [Compound-8, 4-(2,4-dichlorophenyl)-6-[(1,3-dioxoisoindolin-2-yl)methyl]-2-methyl-pyridine-3-carboxamide]: the “TOMM6 protein level in HEK cells” value in [1] is listed as “inducers of TOMM6”.

For the compound `Cc1nc(CN)cc(-c2ccc(Cl)cc2)c1C(N)=O` [Compound-7, 6-(aminomethyl)-4-(4-chlorophenyl)-2-methyl-pyridine-3-carboxamide], the “TOMM6 protein level in HEK cells” value in data set [1] is listed as “inducers of TOMM6”. Moreover, the “oral bioavailability / serum concentrations after oral intake” value in [2] (rats) and in data set [4] was “has oral bioavailability” throughout. The “oral doses required to achieve equivalent peak serum concentrations, higher in rats compared to dogs” value in data set [2] (rats vs dogs) was “approximately 10 fold”. In [2] (setting [11]), the “time of peak serum concentration” value was 1 h. Further, the “time of second serum peak” value in [2] (setting [11]) is given as 3 h. The hippocampal neuronal loss entry in [3] is listed as “retarded overt neuronal loss”. Also, the peak serum concentration stood at 0.59 µg/mL in data set [4] (repeated once daily oral dose of 2 mg/kg), 1.56 µg/mL in data set [4] (repeated once daily oral dosing of 5 mg/kg) and 3.96 µg/mL in data set [4] (repeated once daily oral dosing of 12.5 mg/kg). Further, in data set [5], the “hippocampal content of hyperphosphorylated PHF-Tau” value (shortened to “hippocampal content”) is recorded as “decreased hippocampal PHF tau hyperphosphorylation”. Besides, the “hippocampal Tomm6 protein content” value in data set [6] is “strong increase in hippocampal Tomm6 protein content”. The daily food intake entry in data set [7] (rats, daily oral dose of 100 mg/kg/d) was “slightly decreased daily food intake”. The toxic side effects entry was “did not show any detectable toxic side effects” in [7] (rats, up to an oral dose of 50 mg/kg/day, four weeks) and “did not show any detectable toxic side effects” in [8]. Besides, in data set [7] (therapeutic dose 10 mg/kg once daily in rodent models), the “difference between therapeutic and toxic doses (therapeutic index)” value is given as “approximately 10 fold”.

As for `O=C(NCc1ccc(Cl)c(Cl)c1)c1coc(C2CCCNC2)n1` (stereo not shown) [Compound-4, N-[(3,4-dichlorophenyl)methyl]-2-(3-piperidyl)oxazole-4-carboxamide], in data set [1], the “TOMM6 protein level in HEK cells” value is “inducers of TOMM6”. Besides, the hippocampal neuronal loss result in data set [3] is recorded as “retarded overt neuronal loss”. Also, the “hippocampal content” value in data set [5] is listed as “decreased hippocampal PHF tau hyperphosphorylation”. For the same compound, in data set [6], the “hippocampal Tomm6 protein content” value is given as “strong increase in hippocampal Tomm6 protein content”.

Consider `Cc1nc(CO)cc(-c2ccc(Cl)cc2)c1C(N)=O` [Compound-10, 4-(4-chlorophenyl)-6-(hydroxymethyl)-2-methyl-pyridine-3-carboxamide], for which the “TOMM6 protein level in HEK cells” value in data set [1] is on record as “inducers of TOMM6”. In addition, in data set [3], the hippocampal neuronal loss entry was “retarded the CUMS-induced hippocampal neuronal loss”. In addition, the “hippocampal content” value in [5] is given as “significantly inhibited the hippocampal accumulation of hyperphosphorylated PHF tau”. In addition, the toxic adverse effects entry in data set [9] is reported as “did not show any detectable toxic adverse effects”. Further, the “hippocampal Tomm6 protein content” value in [6] is recorded as “significantly higher”.

Regarding `CC(C)[C@H](N)c1nc(C(=O)NCc2ccc(Cl)c(Cl)c2)co1` [Compound-6, 2-[(1S)-1-amino-2-methyl-propyl]-N-[(3,4-dichlorophenyl)methyl]oxazole-4-carboxamide], in data set [1], the “TOMM6 protein level in HEK cells” value is “inducers of TOMM6”.

In the case of `O=C(NCc1cccc(Cl)c1)c1coc(C2CCCNC2)n1` (stereo not shown) [Compound-3, N-[(3-chlorophenyl)methyl]-2-(3-piperidyl)oxazole-4-carboxamide], the “TOMM6 protein level in HEK cells” value in [1] is “inducers of TOMM6”.

As to `Cc1nc(CN2C(=O)c3ccccc3C2=O)cc(-c2ccc(Cl)cc2)c1C(N)=O` [Compound-9, 4-(4-chlorophenyl)-6-[(1,3-dioxoisoindolin-2-yl)methyl]-2-methyl-pyridine-3-carboxamide], the “TOMM6 protein level in HEK cells” value in data set [1] was “inducers of TOMM6”.

For the compound `CCC(C)[C@H](N)c1nc(C(=O)NCc2ccc(Cl)c(Cl)c2)co1` (stereo partly drawn) [Compound-5, 2-[(1S)-1-amino-2-methyl-butyl]-N-[(3,4-dichlorophenyl)methyl]oxazole-4-carboxamide], the “TOMM6 protein level in HEK cells” value in [1] is given as “inducers of TOMM6”.

As to `C[C@@H]1CCO[C@H]2Cn3cc(C(=O)NCc4ccc(F)cc4F)c(=O)c(O)c3C(=O)N12` [dolutegravir], in [10], the Tomm6 induction result is listed as “not a Tomm6 inducer”.
